In patent publication US11103588B2, “Methods and compositions relating to carnitine-derived materials” (Wayne State University, priority 2017, dated 2021):
Counter-ions that a name gives are not always drawn. Like-named read-outs stand apart in the source and are kept apart here.

Settings: for Solubility in ACN / Solubility in CHCl3 / Solubility in EA: 80 mg/ml
From the text: It is critical to select the right solvent for the one-step reaction to obtain L-carnitineMA monomer. Acryloyl chloride has to be dissolved in a non-protic solvent to preserve its reactivity.

C[N+](C)(C)C[C@H](O)CC(=O)[O-] [L-carnitine inner-salt]
No (No: not soluble): Solubility in ACN (40° C.) | Solubility in ACN (80° C.) | Solubility in CHCl3 (CHCl3, 40° C.) | Solubility in CHCl3 (CHCl3, 80° C.) | Solubility in EA (40° C.) | Solubility in EA (80° C.)
totally insoluble: Solubility in DMF (in words) (80° C.)

C[N+](C)(C)C[C@H](O)CC(=O)[O-].Cl [L-carnitine hydrochloride]
No (No: not soluble): Solubility in ACN (40° C.) | Solubility in ACN (80° C.) | Solubility in CHCl3 (CHCl3, 40° C.) | Solubility in CHCl3 (CHCl3, 80° C.) | Solubility in EA (40° C.) | Solubility in EA (80° C.)
partially dissolved: Solubility in DMF (in words) (80° C.)
